Molecular target: T1, human PD-L1 / human PD-1 interaction (Homo sapiens, UniProt Q9NZQ7)
T1 construct: purchased R&D (PD-L1); ACRO Biosystems (PD-1, biotin)
Assay: ELISA of PD-1/PD-L1 interaction
Format: binding
Experimental: The activity of Compound 1.041 was assessed with an ELISA assay assessing the direct binding of recombinant PD-1 and PD-L1 proteins (FIG. 1A), a dimerization ELISA assay assessing the direct binding/dimerization of recombinant PD-L1 proteins (FIG. 1B), a cell based assay measuring the downstream signaling following the interaction of PD-1 and PD-L1 using a Luciferase reporter assay with cell lines overexpressing PD-1 and PD-L1 (FIG. 1C), and a mixed lymphocyte reaction assay measuring the functional outcome of upregulation of IFNg secretion, using allogenic primary human immune cells (FIG. 1D). Briefly, the mixed lymophocyte reaction assay was performed as follows: Dendritic cells and CD4+T Cells from unmatched donors were cultured together for 5 days in 96 well-flat bottom plates. Test compound was added as indicated at starting concentration of 1 μM with 1:4 dilutions with DMSO. Supernatants were harvested after 5 days of incubation and detection of human IFNg was performed by ELISA. […]
96 Well plates were coated with 1 μg/mL of human PD-L1 (obtained from R&D) in
PBS overnight at 4° C. The wells were then blocked with 2% BSA in PBS (WN) with 0.05% TWEEN-20 for 1 hour at 37° C. The plates were washed 3 times with PBS/0.05% TWEEN-20 and the compounds were serial diluted (1:5) in dilution medium and added to the ELISA plates. Human PD-1 and biotin 0.3μg/mL (ACRO Biosystems) were added and incubated for 1 hour at 37° C. then washed 3 times with PBS/0.05% TWEEN-20. A second block was performed with 2% BSA in PBS (WN)/0.05% TWEEN-20 for 10 min at 37° C. and was washed 3 times with PBS/0.05% TWEEN-20. Streptavidin—HRP was added for 1 hour at 37° C. then washed 3 times with PBS/0.05% TWEEN-20. TMB substrate was added and reacted for 20 min at 37° C. A stop solution (2 N aqueous H2SO4) was added. The absorbance was read at 450 nm using a micro-plate spectrophotometer.

T1 sequence (Q9NZQ7 19-239 limits assumed): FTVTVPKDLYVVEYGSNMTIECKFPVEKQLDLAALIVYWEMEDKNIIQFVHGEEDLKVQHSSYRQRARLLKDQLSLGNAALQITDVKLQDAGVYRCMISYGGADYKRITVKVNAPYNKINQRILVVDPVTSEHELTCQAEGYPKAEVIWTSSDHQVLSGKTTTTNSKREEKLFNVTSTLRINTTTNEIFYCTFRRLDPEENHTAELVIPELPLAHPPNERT

Structure (SMILES) | IC50 [nM]
Cc1c(OCCCN2CCC(C)(F)CC2)cccc1-c1cccc2c1CC[C@@H]2Oc1cc(OCc2cc(C#N)cc(C#N)c2)c(CN[C@@H]2CCC[C@H]2O)cc1Cl | 5 to 500
CCOc1cc(O[C@H]2CCc3c(-c4cccc(OCCCN(C)C(C)C)c4C)cccc32)c(Cl)cc1CNC[C@@H]1CCC(=O)N1 | < 5
Cc1c(OCCCN2CCC(O)CC2)cccc1-c1cccc2c1CC[C@@H]2Oc1cc(OCc2cncc(C#N)c2)c(CN2CC[C@@H](O)C2)cc1Cl | < 5
Cc1c(OCCCN2CC[C@H](F)C[C@@H]2C)cccc1-c1cccc2c1CC[C@@H]2Oc1cc(OCc2cc(C#N)cc(C#N)c2)c(CN[C@H]2CCC(=O)NC2)cc1Cl | 5 to 500
N#Cc1cncc(COc2cc(O[C@H]3CCc4c(-c5cccc(OCCCN6CC7(CC(O)C7)C6)c5Cl)cccc43)c(Cl)cc2CN[C@@H]2CCCC[C@@H]2O)c1 | < 5
Cc1c(OCCCN2CCCC[C@@H]2C)cccc1-c1cccc2c1CC[C@@H]2Oc1cc(OCc2cc(C#N)cc(C#N)c2)c(CN[C@H]2CCC(=O)NC2)cc1Cl | < 5
N#Cc1cncc(COc2cc(O[C@H]3CCc4c(-c5cccc(OCCCN6CC7(CC(F)C7)C6)c5Cl)cccc43)c(Cl)cc2CNC[C@@H]2CCC(=O)N2)c1 | < 5
N#Cc1cncc(COc2cc(O[C@H]3CCc4c(-c5cccc(OCCCN6CCC(F)CC6)c5Cl)cccc43)c(Cl)cc2CN2CC[C@@H](F)C2)c1 | < 5
CCCC(CO)(NCc1cc(Cl)c(O[C@H]2CCc3c(-c4cccc(OCCCN5CC(O)C5)c4Cl)cccc32)cc1OCc1cncc(C#N)c1)C(=O)O (some centres unmarked) | < 5
Cc1c(OCCCN2CC(O)C2)cccc1-c1cccc2c1CC[C@@H]2Oc1cc(OCc2cncc(C#N)c2)c(CN[C@H](C(=O)O)[C@@H](C)O)cc1Cl | < 5
CCOc1cc(O[C@H]2CCc3c(-c4cccc(OCCCN5CC[C@@H](O)C5)c4C)cccc32)c(Cl)cc1CN[C@H](C(=O)O)[C@@H](C)O | < 5
N#Cc1cc(C#N)cc(COc2cc(O[C@@H]3c4cccc(-c5cccc(OCCCN6CC(O)C6)c5Cl)c4C[C@@H]3F)c(Cl)cc2CNC[C@H]2CCC(=O)N2)c1 | < 5
Cc1c(OCCCN2CCCC2C(C)C)cccc1-c1cccc2c1CC[C@@H]2Oc1cc(OCc2cc(C#N)cc(C#N)c2)c(CN[C@H]2CCC(=O)NC2)cc1Cl (some centres unmarked) | 5 to 500
CCOc1cc(O[C@H]2CCc3c(-c4cccc(OCCCN5CCC5(C)C)c4C)cccc32)c(Cl)cc1CN1CC[C@H](C(=O)O)C1 | 5 to 500
Cc1c(OCCCN2CCC(F)CC2)cccc1-c1cccc2c1CC[C@@H]2Oc1cc(OCc2cncc(C#N)c2)c(CNC[C@H]2CCC(=O)N2)cc1Cl | < 5
Cc1c(OCCCN2CCC(F)CC2)cccc1-c1cccc2c1CC[C@@H]2Oc1cc(OCc2cc(C#N)cc(C#N)c2)c(CN[C@H]2CCC[C@H]2O)cc1Cl | < 5
Cc1c(OCCCN2CCC(O)CC2)cccc1-c1cccc2c1CC[C@@H]2Oc1cc(OCc2cncc(C#N)c2)c(CN2CCC(C)(O)CC2)cc1Cl | < 5
CC(CO)(NCc1cc(Cl)c(O[C@H]2CCc3c(-c4cccc(OCCCN5CCCCC5)c4Cl)cccc32)cc1OCc1cncc(C#N)c1)C(=O)O (some centres unmarked) | < 5
CCOc1cc(O[C@H]2CCc3c(-c4cccc(OCCCN5CC[C@@H](O)C5)c4C)cccc32)c(Cl)cc1CNC(C)(CO)CO | < 5
CN1CCC(COc2cccc(-c3cccc4c3CC[C@@H]4Oc3cc(OCc4cncc(C#N)c4)c(CNC[C@H]4CCC(=O)N4)cc3Cl)c2Cl)C1 (some centres unmarked) | < 5

Continued, values first:

IC50 [nM] | Structure (SMILES)
< 5 | Cc1c(OCCCN2CCC(O)CC2)cccc1-c1cccc2c1CC[C@@H]2Oc1cc(OCc2cc(C#N)cc(C#N)c2)c(CN[C@@H]2CCCC[C@@H]2O)cc1Cl
< 5 | Cc1c(OCCCN2CCC[C@H](O)C2)cccc1-c1cccc2c1CC[C@@H]2Oc1cc(OCc2cncc(C#N)c2)c(CN[C@H](C(=O)O)[C@@H](C)O)cc1Cl
< 5 | Cc1c(OCCCN2CCC(O)CC2)cccc1-c1cccc2c1CC[C@@H]2Oc1cc(OCc2cncc(C#N)c2)c(CN[C@@H]2CCCC[C@H]2O)cc1Cl
< 5 | CCOc1cc(O[C@H]2CCc3c(-c4cccc(OCCCN5C(C)CC5C)c4C)cccc32)c(Cl)cc1CNC[C@@H]1CCC(=O)N1 (some centres unmarked)
< 5 | N#Cc1cncc(COc2cc(O[C@H]3CCc4c(-c5cccc(OCCCN6CCC6)c5Cl)cccc43)c(Cl)cc2CNC[C@@H]2CCC(=O)N2)c1
< 5 | N#Cc1cncc(COc2cc(O[C@H]3CCc4c(-c5cccc(OCCCN6CCC(F)CC6)c5Cl)cccc43)c(Cl)cc2CNC[C@@H]2CCC(=O)N2)c1
< 5 | C[C@@H](O)[C@H](NCc1cc(Cl)c(O[C@H]2CCc3c(-c4cccc(OCCCN5CC(O)C5)c4Cl)cccc32)cc1OCc1cncc(C#N)c1)C(=O)NS(C)(=O)=O
< 5 | N#Cc1cncc(COc2cc(O[C@H]3CCc4c(-c5cccc(OCCCN6CC7(CC(O)C7)C6)c5Cl)cccc43)c(Cl)cc2CNC[C@H]2CCC(=O)N2)c1
< 5 | CC1(O)CN(Cc2cc(Cl)c(O[C@H]3CCc4c(-c5cccc(OCCCN6CCC(F)CC6)c5Cl)cccc43)cc2OCc2cncc(C#N)c2)C1
< 5 | CCOc1cc(O[C@H]2CCc3c(-c4cccc(OCCCN5CCC[C@@H]5C(C)C)c4C)cccc32)c(Cl)cc1CNC[C@@H]1CCC(=O)N1
< 5 | N#Cc1cncc(COc2cc(O[C@H]3CCc4c(-c5cccc(OCCCN6CCCCC6)c5Cl)cccc43)c(Cl)cc2CN[C@@H]2CCCC[C@@H]2O)c1
< 5 | C[C@@H](O)[C@H](NCc1cc(Cl)c(O[C@H]2CCc3c(-c4cccc(OCCCN5CC(O)C5)c4Cl)cccc32)cc1OCc1cncc(C#N)c1)C(N)=O
< 5 | Cc1c(OCCCN2CCC(F)CC2)cccc1-c1cccc2c1CC[C@@H]2Oc1cc(OCc2cc(C#N)cc(C#N)c2)c(CN[C@@H]2CCC(=O)NC2)cc1Cl
< 5 | N#Cc1cncc(COc2cc(O[C@H]3CCc4c(-c5cccc(OCCCN6CCC(O)CC6)c5Cl)cccc43)c(Cl)cc2CN[C@@H]2CCCC[C@@H]2O)c1
< 5 | N#Cc1cncc(COc2cc(O[C@H]3CCc4c(-c5cccc(OCCCN6CCC(O)CC6)c5Cl)cccc43)c(Cl)cc2CNC(CO)CO)c1
< 5 | CC(CO)(NCc1cc(Cl)c(O[C@H]2CCc3c(-c4cccc(OCCCN5CC(F)C5)c4Cl)cccc32)cc1OCc1cncc(C#N)c1)C(=O)O (some centres unmarked)
< 5 | N#Cc1cncc(COc2cc(O[C@H]3CCc4c(-c5cccc(OCCCN6CCC(F)CC6)c5Cl)cccc43)c(Cl)cc2CNC[C@H]2CCC(=O)N2)c1
< 5 | C[C@@H](O)[C@H](NCc1cc(Cl)c(O[C@H]2CCc3c(-c4cccc(OCCCN5CC(O)C5)c4Cl)cccc32)cc1OCc1cncc(C#N)c1)C(=O)O
< 5 | C[C@@](CO)(NCc1cc(Cl)c(OC2CCc3c(-c4cccc(OCCCN5CC(O)C5)c4Cl)cc(F)cc32)cc1OCc1cncc(C#N)c1)C(=O)O (some centres unmarked)
< 5 | Cc1c(OCCCN2CCC(O)CC2)cccc1-c1cccc2c1C[C@@H](F)[C@@H]2Oc1cc(OCc2cncc(C#N)c2)c(CN[C@@H](CO)C(=O)O)cc1Cl
< 5 | N#Cc1cncc(COc2cc(O[C@H]3CCc4c(-c5cccc(OCCCN6CC(O)C6)c5Cl)cccc43)c(Cl)cc2CNCC(=O)O)c1
< 5 | N#Cc1cncc(COc2cc(O[C@H]3CCc4c(-c5cccc(OCCCN6CCCCC6)c5Cl)cccc43)c(Cl)cc2CNC[C@@H]2CCC(=O)N2)c1
< 5 | CCOc1cc(O[C@H]2CCc3c(-c4cccc(OCCCN5CC[C@@H](O)C5)c4C)cccc32)c(Cl)cc1CNC(CO)CO
< 5 | Cc1c(OCCCN2CCC(O)CC2)cccc1-c1cccc2c1CC[C@@H]2Oc1cc(OCc2cncc(C#N)c2)c(CNCC2CCC(=O)N2)cc1Cl (some centres unmarked)
